Organism: Rattus norvegicus
Assay: Open TG-GATES - Regimen: Single
Assay type: toxicity, organism-based, Sprague-Dawley
Parameters: regimen Single, gender Male, age 6 weeks
Details: in vivo, po, 0 mg/kg, route gavage, dose level Control; for APTT / Bas / Eos / Fbg / Hb / Ht / Lym / MCH / MCV / Mono / Neu / PT / Plat / RBC / Ret / WBC: tissue Blood; for KIDNEY_L / KIDNEY_R / KIDNEY_TOTAL: tissue Kidney; for LIVER: tissue Liver; for ALP / ALT / AST / BUN / CRE / Ca / Cl / DBIL / GLC / IP / K / LDH / Na / PL / RALB / TBIL / TG / TP / gamma-GTP: tissue Plasma

SMILES: NC(=O)N1c2ccccc2C=Cc2ccccc21 [CARBAMAZEPINE]
- TERMINAL_BW (3 h): 216.5 g
- APTT (3 h): 20 s
- Bas (3 h): 0%
- Eos (3 h): 1%
- Fbg (3 h): 213.8 mg/dL
- Hb (3 h): 13.4 g/dL
- Ht (3 h): 38.6%
- Lym (3 h): 80%
- MCH (3 h): 21.9 pg
- MCV (3 h): 63.2 fL
- Mono (3 h): 2%
- Neu (3 h): 16%
- PT (3 h): 12.4 s
- Plat (3 h): 131 x10_4/uL
- RBC (3 h): 611.8 x10_4/ul
- Ret (3 h): 6.3%
- WBC (3 h): 106.8 x10_2/uL
- KIDNEY_L (3 h): 1 g
- KIDNEY_R (3 h): 0.9 g
- KIDNEY_TOTAL (3 h): 1.9 g
- LIVER (3 h): 10 g
- ALP (3 h): 846.4 IU/L
- ALT (3 h): 33 IU/L
- AST (3 h): 64.6 IU/L
- BUN (3 h): 11.6 mg/dL
- CRE (3 h): 0.4 mg/dL
- Ca (3 h): 10.7 mg/dL
- Cl (3 h): 103 meq/L
- DBIL (3 h): 0.082 mg/dL
- GLC (3 h): 199.2 mg/dL
- IP (3 h): 9 mg/dL
- K (3 h): 3.6 meq/L
- LDH (3 h): 176.6 IU/L
- Na (3 h): 141.2 meq/L
- PL (3 h): 131.8 mg/dL
- RALB (3 h): 3.3 g/dL
- TBIL (3 h): 0.1 mg/dL
- TG (3 h): 66.2 mg/dL
- TP (3 h): 5.4 g/dL
- gamma-GTP (3 h): 0.8 IU/L
- TERMINAL_BW (6 h): 213.8 g
- APTT (6 h): 19.3 s
- Bas (6 h): 0%
- Eos (6 h): 1%
- Fbg (6 h): 220.2 mg/dL
- Hb (6 h): 13.7 g/dL
- Ht (6 h): 40%
- Lym (6 h): 77%
- MCH (6 h): 21.3 pg
- MCV (6 h): 62.5 fL
- Mono (6 h): 3.2%
- Neu (6 h): 17.6%
- PT (6 h): 12.5 s
- Plat (6 h): 115.6 x10_4/uL
- RBC (6 h): 640.4 x10_4/ul
- Ret (6 h): 6.6%
- WBC (6 h): 94.2 x10_2/uL
- KIDNEY_L (6 h): 1 g
- KIDNEY_R (6 h): 1 g
- KIDNEY_TOTAL (6 h): 2 g
- LIVER (6 h): 9.2 g
- ALP (6 h): 858.4 IU/L
- ALT (6 h): 37 IU/L
- AST (6 h): 65.6 IU/L
- BUN (6 h): 8.8 mg/dL
- CRE (6 h): 0.4 mg/dL
- Ca (6 h): 10.5 mg/dL
- Cl (6 h): 103 meq/L
- DBIL (6 h): 0.08 mg/dL
- GLC (6 h): 196.8 mg/dL
- IP (6 h): 9.4 mg/dL
- K (6 h): 3.9 meq/L
- LDH (6 h): 175.2 IU/L
- Na (6 h): 140.2 meq/L
- PL (6 h): 133.4 mg/dL
- RALB (6 h): 3.3 g/dL
- TBIL (6 h): 0.1 mg/dL
- TG (6 h): 60.4 mg/dL
- TP (6 h): 5.5 g/dL
- gamma-GTP (6 h): 1.4 IU/L
- TERMINAL_BW (9 h): 211.7 g
- APTT (9 h): 22.5 s
- Bas (9 h): 0%
- Eos (9 h): 1%
- Fbg (9 h): 220 mg/dL
- Hb (9 h): 13 g/dL
- Ht (9 h): 38.2%
- Lym (9 h): 78.8%
- MCH (9 h): 20.9 pg
- MCV (9 h): 61.5 fL
- Mono (9 h): 2.2%
- Neu (9 h): 17.5%
- PT (9 h): 13.2 s
- Plat (9 h): 119.7 x10_4/uL
- RBC (9 h): 621.8 x10_4/ul
- Ret (9 h): 6.6%
- WBC (9 h): 89.4 x10_2/uL
- KIDNEY_L (9 h): 1 g
- KIDNEY_R (9 h): 1 g
- KIDNEY_TOTAL (9 h): 2 g
- LIVER (9 h): 9.3 g
- ALP (9 h): 824.8 IU/L
- ALT (9 h): 32 IU/L
- AST (9 h): 63.8 IU/L
- BUN (9 h): 9.8 mg/dL
- CRE (9 h): 0.4 mg/dL
- Ca (9 h): 10.3 mg/dL
- Cl (9 h): 102 meq/L
- DBIL (9 h): 0.07 mg/dL
- GLC (9 h): 202.8 mg/dL
- IP (9 h): 9.3 mg/dL
- K (9 h): 3.9 meq/L
- LDH (9 h): 170.4 IU/L
- Na (9 h): 140.2 meq/L
- PL (9 h): 127 mg/dL
- RALB (9 h): 3.3 g/dL
- TBIL (9 h): 0.1 mg/dL
- TG (9 h): 47 mg/dL
- TP (9 h): 5.3 g/dL
- gamma-GTP (9 h): 1 IU/L
- TERMINAL_BW (24 h): 225.7 g
- APTT (24 h): 21.9 s
- Bas (24 h): 0%
- Eos (24 h): 0.8%
- Fbg (24 h): 215.6 mg/dL
- Hb (24 h): 13.7 g/dL
- Ht (24 h): 40.7%
- Lym (24 h): 79.8%
- MCH (24 h): 21.5 pg
- MCV (24 h): 63.9 fL
- Mono (24 h): 2.4%
- Neu (24 h): 15.8%
- PT (24 h): 12.1 s
- Plat (24 h): 117.9 x10_4/uL
- RBC (24 h): 637.2 x10_4/ul
- Ret (24 h): 6%
- WBC (24 h): 90.1 x10_2/uL
- KIDNEY_L (24 h): 1 g
- KIDNEY_R (24 h): 1 g
- KIDNEY_TOTAL (24 h): 2 g
- LIVER (24 h): 10.4 g
- ALP (24 h): 990.6 IU/L
- ALT (24 h): 39.2 IU/L
- AST (24 h): 70.4 IU/L
- BUN (24 h): 15.6 mg/dL
- CRE (24 h): 0.4 mg/dL
- Ca (24 h): 10.6 mg/dL
- Cl (24 h): 102.4 meq/L
- DBIL (24 h): 0.088 mg/dL
- GLC (24 h): 207 mg/dL
- IP (24 h): 7.9 mg/dL
- K (24 h): 4 meq/L
- LDH (24 h): 199 IU/L
- Na (24 h): 140.4 meq/L
- PL (24 h): 146.2 mg/dL
- RALB (24 h): 3.4 g/dL
- TBIL (24 h): 0.1 mg/dL
- TG (24 h): 93.6 mg/dL
- TP (24 h): 5.6 g/dL

Reference: ChEMBL document CHEMBL3885861, “Open TG-GATES”
